Experimental findings from EPA's ToxValDB 9.5 are described below.

The test system of series [1] is Rattus norvegicus. The conditions noted are these: for LD50 / LC50: acute.
Series [2] concerns Oryctolagus sp. Briefly: LD0; higher = less toxic. To be noted: acute.
The subject of a further series is Canidae. The conditions noted are these: chronic; duration: 2 years; oral; diet; M/F; Dog Other; reduced body weight gain, and increased liver and kidney weight.
Series [3] relates to Rattus norvegicus. To be noted: oral, gavage.
Series [4] deals with Mus musculus. To be noted: oral; for NOAEL: subchronic, duration: 90 days, M/F.
In series [5] the test system is Mus musculus. The conditions noted are these: chronic; duration: 2 years; inhalation; intermittent; Nasal mucosa: Hyperplasia + Nasal mucosa: Hypertrophy.
The subject of series [6] is Rattus norvegicus. The conditions noted are these: subchronic; duration: 90 days; oral; diet; Organs: Increased weight.
Series [7] concerns Rattus norvegicus. Briefly: LC0; higher = less toxic. The conditions noted are these: acute; inhalation.
The test system of series [8] is Oryctolagus sp. The conditions noted are these: developmental; oral; F; maternal (reduced weight gain) and fetal toxicity.
Series [9] deals with Oryctolagus sp. The conditions noted are these: developmental; duration: 12 days; oral; gavage; Dam: Decreased weight gain + Fetus: Decreased weight + Fetus: Increased mortality + Fetus: Increased post-implantation losses.
Series [10] has as its system Oryctolagus sp. To be noted: for NOAEL: duration: 13 days, oral; for LD50: acute, dermal.
Series [11] concerns Mus musculus. The conditions noted are these: oral.
Series [12] has as its system Rattus norvegicus. Kind of series: LD0; higher = less toxic. The conditions noted are these: acute, oral, gavage.
Series [13] deals with Mus musculus. To be noted: subchronic; oral; gavage; M/F; clinical signs (lethargy, prostration, and ataxia and hematological changes.
[14] abbreviates: short-term, duration: 28 days, oral, gavage, Sprague-Dawley.
Setting [15] is: reproduction developmental, oral, diet, Sprague-Dawley, generation: F0.
Where [16] appears, read: short-term, duration: 28 days, M, Sprague-Dawley, Functional Observational Battery: No urination (week1) + Body Weight Changes: decrease + Food Consumption: decrease + Urinalysis: Volume ….
[17] abbreviates: short-term, duration: 4 weeks, oral, diet, Sprague-Dawley.

Each structure is given as a SMILES string. Where “and” joins values, the source holds several entries; their conditions need not be identical. Identical values can stand only once.

Consider `NC1CCCCC1N` (configuration not stated) [1,2-Cyclohexanediamine], for which the LD50 in the series with Rattus norvegicus [1] (oral, gavage, Sprague-Dawley) was 1100 mg. In the series on Rattus norvegicus [1] (setting [14]), this compound registered an LOAEL of 250 mg/kg-day and an NOAEL of 100 mg/kg-day. The compound also showed an NOAEL in the series with Rattus norvegicus [1] (subchronic, duration: 13 weeks, oral, gavage, Crj:CD) of 125 mg/kg-day. In addition, the LD0 in the series on Oryctolagus sp. [2] (dermal, New Zealand) came out at 7500 mg/kg.
In the series with Canidae, `c1ccc(Nc2ccccc2)cc1` [Diphenylamine] gave an LEL of 25 mg/kg-day and an NOEL of 2.5 mg/kg-day. The NOEL in the series with Rattus norvegicus [3] (short-term, duration: 28 days, M/F, Fischer 344, Clinical Observation: Dark brown colored bedding + Body Weight Changes: Weight gain decrease + Food Consumption: decrease + Hematology: RBC …) came to 111 mg/kg-day. The compound further yielded an NOAEL in the series on Mus musculus [4] (diet, CD1) of 2.1 mg/kg-day.
As to `ClC=CCCl` [1,3-Dichloropropene], the NOAEL in the series with Mus musculus [5] worked out at 22.7 mg/m3. Also, the NOEL in the series with Rattus norvegicus [6] came out at 3 mg/kg-day.
For `FC(F)(F)C(F)(Cl)Cl` [1,1-Dichlorotetrafluoroethane], the LC0 in the series on Rattus norvegicus [7] is over 1.07e+06 mg/m3. In addition, the NOAEL in the series with Rattus norvegicus [1] (short-term, duration: 2 weeks, inhalation, M, Crl:CDABR) was 289000 mg/m3.
As for `COc1c(Cl)ccc(Cl)c1C(=O)O` [Dicamba], in the series with Oryctolagus sp. [8], the LEL amounted to 10 mg/kg-day. This compound also came in with an NOEL with Oryctolagus sp. [8] of 3 mg/kg-day. Moreover, the NOAEL in the series with Oryctolagus sp. [9] is 3 mg/kg-day; in the series with Oryctolagus sp. [10] (reproduction developmental, F, New Zealand), at most 30 mg/kg-day; in the series on Oryctolagus sp. [10] (reproduction developmental, New Zealand, generation: F1), at most 300 mg/kg-day; in the series on Rattus norvegicus [1] (developmental, duration: 14 days, oral, gavage, Crj:CD), at most 400 mg/kg-day; in the series with Rattus norvegicus [1] (reproduction developmental, duration: 14 days, oral, gavage, F, Crj:CD) it was at most 160 mg/kg-day.
Regarding `S=C(SN1CCOCC1)N1CCOCC1` [4-((Morpholinothio)thioxomethyl)morpholine], in the series with Rattus norvegicus [7], the LC0 amounted to 164 mg/L. Besides, the LD50 with Mus musculus [11] (acute, gavage, CD1) was 7000 mg/kg and 9000 mg/kg and 11000 mg/kg; with Oryctolagus sp. [10] (semiocclusive), over 10000 mg/kg; in the series with Rattus norvegicus [1] (oral, gavage) it was 5110 mg/kg; in the series with Rattus norvegicus [1] (oral, gavage, Sprague-Dawley), 5000 mg/kg and 5200 mg/kg. Further, the NOAEL is 200 ppm with Rattus norvegicus [1] (reproduction developmental, duration: 12 weeks, oral, diet, Sprague-Dawley, generation: F0); 600 ppm in the series with Rattus norvegicus [1] (reproduction developmental, duration: 12 weeks, oral, diet, Sprague-Dawley, generation: F1); 600 ppm in the series on Rattus norvegicus [1] (setting [15]). In addition, the LD0 in the series on Rattus norvegicus [12] was found to be 1000 mg/kg; in the series on Rattus norvegicus [12] (Sprague-Dawley) it was 2700 mg/kg.
With `CN(C)N=O` [N-Nitrosodimethylamine], in the series with Rattus norvegicus [3] (setting [16]), the NOAEL is under 0.8 mg/kg-day and the NOEL is under 0.8 mg/kg-day. In the series on Mus musculus [4] (developmental, duration: 100 days, drinking water, F, CD1, developmental), this compound displayed an LOAEL of 0.025 mg/kg-day.
Take `CCCCC(CC)COP(=O)(O)O` (configuration not stated) [2-Ethylhexyl dihydrogen phosphate]: the LD50 in the series on Oryctolagus sp. [10] (New Zealand) was over 4640 mg/kg; in the series on Rattus norvegicus [1] (oral, gavage, Sprague-Dawley), 4100 mg/kg and 2710 mg/kg. For the same compound, the LD0 was 11300 mg/kg in the series with Oryctolagus sp. [2] (dermal, New Zealand) and 3640 mg/kg in the series on Rattus norvegicus [12].
In turn, `Cc1ccc(O)c(C)c1` [2,4-Dimethylphenol] yielded an LOAEL in the series on Mus musculus [13] of 250 mg/kg-day. For the same compound, the NOAEL in the series with Mus musculus [13] came out at 50 mg/kg-day; with Mus musculus [11] (subchronic, duration: 90 days, gavage, F) it was 50 mg/kg-day; with Mus musculus [4] (gavage, Crl:CD-1(ICR)BR-VAF+, Whole Body Effects) it was 50 mg/kg-day. Also, the results for the LC50 with Mus musculus [11] (acute) and in the series on Rattus norvegicus [1] (oral) were 809 mg/kg and 2300 mg/kg, respectively.
Regarding `S=c1[nH]c2ccccc2s1` [2-Mercaptobenzothiazole], the NOEL with Rattus norvegicus [3] (subchronic, duration: 13 weeks, M/F, Fischer 344, Absolute Organ Weight: Liver increase + Relative Organ Weight: Liver increase) was under 188 mg/kg-day; in the series on Rattus norvegicus [3] (subchronic, M, Sprague-Dawley, Clinical Observation: Locomotor activity with ptosis decrease, Salivation + Body Weight Changes: Suppression of body weight gain(tendency…) it was under 40 mg/kg-day. For the same compound, the LD50 in the series on Mus musculus [11] (acute) is 2000 mg/kg; in the series with Oryctolagus sp. [10] it was over 7940 mg/kg; with Oryctolagus sp. [10] (New Zealand), over 7940 mg/kg; with Rattus norvegicus [1] (oral, Sprague-Dawley) it was 2830 mg/kg and 3800 mg/kg. Further, the NOAEL was 300 mg/kg-day in the series with Oryctolagus sp. [10] (developmental, gavage, New Zealand); 300 mg/kg-day and < 150 mg/kg-day with Oryctolagus sp. [10] (reproduction developmental, gavage, F, New Zealand); 1800 mg/kg-day and 2200 mg/kg-day in the series with Rattus norvegicus [1] (developmental, duration: 10 days, oral, gavage, Sprague-Dawley); 300 mg/kg-day in the series on Rattus norvegicus [1] (reproduction developmental, duration: 10 days, oral, gavage, F, Sprague-Dawley); 2500 ppm in the series on Rattus norvegicus [1] (reproduction developmental, oral, diet, Crl:CD COBS BR); under 5000 ppm in the series on Rattus norvegicus [1] (setting [15]). The NOAEL in the series on Rattus norvegicus [1] (reproduction developmental, oral, diet, Sprague-Dawley, generation: F1) is under 5000 ppm; in the series on Rattus norvegicus [1] (setting [17]) it was 714 mg/kg-day; in the series with Rattus norvegicus [1] (subchronic, duration: 13 weeks, oral, gavage, Fischer 344) it was 375 mg/kg-day. Moreover, in the series with Rattus norvegicus [1] (inhalation), the LC50 is over 1.27 µg/mL. In addition, the LOAEL with Rattus norvegicus [1] (setting [17]) amounted to 1070 mg/kg-day. Further, the LD0 in the series with Oryctolagus sp. [2] (oral) was ≥ 7500 mg/kg and ≤ 8750 mg/kg; in the series with Oryctolagus sp. [2] (oral, New Zealand), ≥ 7500 mg/kg and ≤ 8750 mg/kg.

A word on the LOAEL: it is the lowest tested level that showed an adverse finding. For orientation: NOAEL means the highest dose or exposure tested at which no adverse effect was seen.
